In ChEMBL document CHEMBL4145625 (J Med Chem, 2018):
pIC50: −log10 of the molar value. Converted amounts (≈) assume the structure as drawn.

How the values were obtained:
NCI-H460 [1] = assay: Antitumor activity against human NCI-H460 cells xenografted in BALB/c nude mouse assessed as tumor growth inhibition at 24 mg/kg, ip administered once daily after 16 days relative to control; type: functional; conditions: 384 h, read-out: TGI
Mus musculus [2] = assay: Toxicity in human NCI-H460 cells xenografted BALB/c nude mouse assessed as reduction in body weight at 24 mg/kg, ip administered once daily after 16 days; type: organism-based; conditions: in vivo, 384 h
Mus musculus [3] = assay: Toxicity in human NCI-H460 cells xenografted BALB/c nude mouse assessed as reduction in body weight at 24 mg/kg, ip administered once daily after 20 days; type: organism-based; conditions: in vivo, 480 h
NCI-H460 [4] = assay: Antitumor activity against human NCI-H460 cells xenografted in BALB/c nude mouse assessed as tumor growth inhibition at 24 mg/kg, ip administered once daily after 20 days relative to control; type: functional; conditions: 480 h, read-out: TGI
NCI-H460 [5] = assay: cells; type: functional, cell-based; conditions: Homo sapiens, NCI-H460, 96 h
Description: Cytotoxicity against human NCI-H460 cells after 96 hrs by MTT assay

Mus musculus [6] = assay: Toxicity in human NCI-H460 cells xenografted BALB/c nude mouse assessed as reduction in body weight at 10 mg/kg, po administered once daily after 20 days; type: organism-based; conditions: in vivo, 480 h
NCI-H460 [7] = assay: Antitumor activity against human NCI-H460 cells xenografted in BALB/c nude mouse assessed as tumor growth inhibition at 10 mg/kg, po administered once daily after 20 days relative to control; type: functional; conditions: 480 h, read-out: TGI
in vitro [8] = conditions: ICR, mouse, plasma
Description: Protein binding in ICR mouse plasma at 2 uM after 6 hrs by LC-MS/MS analysis

in vivo [9] = conditions: ICR, mouse, in vivo, po, 30 mg/kg
Mus musculus [10] = assay: In vivo inhibition of PI3Kalpha in po dosed athymic BALB/c nude mouse xenografted with human NCI-H460 cells administered as single dose via gavage after 2 to 24 hrs; type: functional, organism-based
in vivo [11] = conditions: ICR, mouse, in vivo, po, 30 mg/kg; remark: listed apart in the source
Description: Half life in ICR mouse plasma at 30 mg/kg, po by LC/MS/MS analysis

MGC-803 [12] = assay: animal or person; conditions: Mus musculus, MGC-803, po, 432 h, read-out: TGI
in vivo [13] = conditions: ICR, mouse, in vivo, iv, 3 mg/kg
Description: Half life in ICR mouse plasma at 3 mg/kg, iv by LC/MS/MS analysis

DU-145 = assay: cells; type: functional, cell-based; conditions: Homo sapiens, DU-145, 96 h
Description: Cytotoxicity against human DU145 cells after 96 hrs by MTT assay

NCI-H209 [14] = assay: animal or person; conditions: Mus musculus, NCI-H209, po, read-out: TGI
Description: Antitumor activity against human NCI-H209 cells xenografted in BALB/c nude mouse assessed as tumor growth inhibition at 5 mg/kg, po administered once daily after 19 consecutive days relative to control

U-87 MG [15] = assay: cells; type: functional, cell-based, U-87MG ATCC; conditions: Homo sapiens, 96 h
Description: Cytotoxicity against human U87MG cells after 96 hrs by MTT assay

[16] = mouse, in vivo, po, 30 mg/kg
HGC-27 [17] = assay: cells; type: functional, cell-based; conditions: Homo sapiens, HGC-27, 96 h
Description: Cytotoxicity against human HGC27 cells after 96 hrs by MTT assay

NCI-H460 [18] = assay: animal or person; conditions: Mus musculus, NCI-H460, po, 480 h, read-out: TGI
Description: Antitumor activity against human NCI-H460 cells xenografted in BALB/c nude mouse assessed as tumor growth inhibition at 5 mg/kg, po administered once daily after 20 days relative to control

in vivo [19] = conditions: ICR, mouse, in vivo, po, 30 mg/kg; remark: listed apart in the source
in vivo [20] = conditions: ICR, mouse, in vivo, po, 30 mg/kg; remark: listed apart in the source
NCI-H460 [21] = assay: Antitumor activity against human NCI-H460 cells xenografted in po dosed athymic BALB/c nude mouse administered as single dose via gavage after 2 to 24 hrs; type: functional, organism-based
MGC-803 [22] = assay: Antitumor activity against human MGC803 cells xenografted in BALB/c nude mouse assessed as tumor growth inhibition at 10 mg/kg, po administered once daily for 18 days measured at post last dose relative to control; type: functional; conditions: MGC-803, po, 432 h, read-out: TGI
U-251 = assay: cells; type: functional, cell-based; conditions: Homo sapiens, U-251, 96 h
Description: Cytotoxicity against human U251 cells after 96 hrs by MTT assay

T98G = assay: cells; type: functional, cell-based; conditions: Homo sapiens, 96 h
Description: Cytotoxicity against human T98G cells after 96 hrs by MTT assay

PC-3 = assay: cells; type: functional, cell-based; conditions: Homo sapiens, PC-3, 96 h
Description: Cytotoxicity against human PC3 cells after 96 hrs by MTT assay

[23] = target: RAC-alpha serine/threonine-protein kinase (Homo sapiens, UniProt P31749); assay: Inhibition of AKT1 (unknown origin) using FAM-labeled peptide as substrate by mobility shift assay
MDA-MB-231 = assay: cells; type: functional, cell-based; conditions: Homo sapiens, MDA-MB-231, 96 h
Description: Cytotoxicity against human MDA-MB-231 cells after 96 hrs by MTT assay

in vivo [24] = conditions: ICR, mouse, po
Description: Toxicity in po dosed ICR mouse administered as single dose via oral gavage measured after 14 days

HGC-27 [25] = assay: Antitumor activity against human HGC27 cells xenografted in BALB/c nude mouse assessed as tumor growth inhibition at […], po administered once daily for 15 days measured at post last dose relative to control; type: functional; conditions: HGC-27, po, 360 h, read-out: TGI
in vivo [26] = conditions: ICR, mouse, in vivo, po, 30 mg/kg; remark: listed apart in the source
SH-SY5Y = assay: cells; type: functional, cell-based; conditions: Homo sapiens, 96 h
Description: Cytotoxicity against human SH-SY5Y cells after 96 hrs by MTT assay

in vivo [27] = conditions: ICR, mouse, in vivo, iv, 3 mg/kg; remark: listed apart in the source
NCI-H209 [28] = conditions: Homo sapiens
Description: Antitumor activity against human NCI-H209 cells xenografted in po dosed BALB/c nude mouse assessed as tumor growth inhibition administered once daily after 19 consecutive days

in vivo [29] = conditions: ICR, mouse, in vivo, iv, 3 mg/kg; remark: listed apart in the source
Description: Clearance in ICR mouse plasma at 3 mg/kg, iv by LC/MS/MS analysis

in vitro [30] = conditions: human, plasma
Description: Protein binding in human plasma at 2 uM after 6 hrs by LC-MS/MS analysis

MGC-803 [31] = conditions: Homo sapiens
Description: Antitumor activity against human MGC803 cells xenografted in po dosed BALB/c nude mouse assessed as tumor growth inhibition administered once daily measured at post last dose

NCI-H209 [32] = assay: animal or person; conditions: Mus musculus, NCI-H209, po, read-out: TGI; remark: listed apart in the source
[33] = target: Phosphatidylinositol 4,5-bisphosphate 3-kinase catalytic subunit beta isoform (Homo sapiens, UniProt P42338); assay: Inhibition of PI3Kbeta (unknown origin) using PIP2 as substrate by ADP-Glo assay
[34] = target: T1, Phosphatidylinositol 4,5-bisphosphate 3-kinase catalytic subunit delta isoform (Homo sapiens, UniProt O00329); assay: Inhibition of PI3Kdelta (unknown origin) using PIP2 as substrate by ADP-Glo assay
T1 sequence (O00329 whole entry): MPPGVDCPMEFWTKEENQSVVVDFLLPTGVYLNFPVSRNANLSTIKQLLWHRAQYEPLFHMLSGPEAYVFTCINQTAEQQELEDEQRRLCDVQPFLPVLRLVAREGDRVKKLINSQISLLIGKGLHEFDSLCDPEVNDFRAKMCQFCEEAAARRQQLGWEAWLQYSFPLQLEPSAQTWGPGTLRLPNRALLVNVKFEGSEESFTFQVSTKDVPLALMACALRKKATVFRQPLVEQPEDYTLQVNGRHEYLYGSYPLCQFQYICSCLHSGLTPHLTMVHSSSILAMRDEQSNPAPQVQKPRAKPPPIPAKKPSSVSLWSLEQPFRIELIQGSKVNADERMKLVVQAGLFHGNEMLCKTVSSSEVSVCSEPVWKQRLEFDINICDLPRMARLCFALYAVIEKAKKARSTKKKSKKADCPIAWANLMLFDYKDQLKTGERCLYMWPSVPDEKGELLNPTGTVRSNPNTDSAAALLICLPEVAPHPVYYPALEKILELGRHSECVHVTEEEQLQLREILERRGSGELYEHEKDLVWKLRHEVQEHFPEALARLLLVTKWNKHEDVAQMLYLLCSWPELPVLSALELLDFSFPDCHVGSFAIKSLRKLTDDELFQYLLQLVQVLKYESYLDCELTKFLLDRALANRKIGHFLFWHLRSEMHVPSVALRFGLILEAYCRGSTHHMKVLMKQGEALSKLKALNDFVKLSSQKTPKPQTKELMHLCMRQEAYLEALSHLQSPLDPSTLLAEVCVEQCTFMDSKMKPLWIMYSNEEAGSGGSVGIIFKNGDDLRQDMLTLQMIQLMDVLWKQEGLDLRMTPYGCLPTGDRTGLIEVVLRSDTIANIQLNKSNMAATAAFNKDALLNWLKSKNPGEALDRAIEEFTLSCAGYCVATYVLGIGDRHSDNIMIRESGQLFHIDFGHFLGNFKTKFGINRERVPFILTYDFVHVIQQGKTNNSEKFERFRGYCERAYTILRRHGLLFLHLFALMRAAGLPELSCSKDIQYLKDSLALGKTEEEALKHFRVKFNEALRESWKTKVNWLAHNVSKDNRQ

MGC-803 [35] = assay: Antitumor activity against human MGC803 cells xenografted in BALB/c nude mouse assessed as tumor growth inhibition at 5 mg/kg, po administered once daily for 18 days measured at post last dose relative to control; type: functional; conditions: MGC-803, po, 432 h, read-out: TGI
in vivo [36] = conditions: ICR, mouse, in vivo, iv, 3 mg/kg; remark: listed apart in the source
in vivo [37] = conditions: ICR, mouse, in vivo, po, 30 mg/kg; remark: listed apart in the source
[38] = target: Serine/threonine-protein kinase mTOR (Homo sapiens, UniProt P42345); assay: Inhibition of mTOR (unknown origin) using ULight-4E-BP1 peptide as substrate after 30 mins by Lance Ultra assay
in vivo [39] = conditions: ICR, mouse, in vivo, po, 30 mg/kg; remark: listed apart in the source
in vivo [40] = conditions: athymic BALB/c nude, mouse, in vivo, po, 10 mg/kg
[41] = target: Phosphatidylinositol 4,5-bisphosphate 3-kinase catalytic subunit gamma isoform (Homo sapiens, UniProt P48736); assay: Inhibition of PI3Kgamma (unknown origin) using PIP2 as substrate by ADP-Glo assay
in vivo [42] = conditions: ICR, mouse, in vivo, iv, 3 mg/kg; remark: listed apart in the source
in vivo [43] = conditions: ICR, mouse, in vivo, iv, 3 mg/kg; remark: listed apart in the source
Description: Volume of distribution at steady state in ICR mouse plasma at 3 mg/kg, iv by LC/MS/MS analysis

in vivo [44] = conditions: ICR, mouse, in vivo, iv, 3 mg/kg; remark: listed apart in the source
A549 = assay: cells; type: functional, cell-based; conditions: Homo sapiens, A549, 96 h
Description: Cytotoxicity against human A549 cells after 96 hrs by MTT assay

U-87 MG [45] = assay: Antitumor activity against Luc tagged human U87MG cells xenografted in BALB/c nude mouse glioblastoma orthotopic model assessed as tumor growth inhibition at 30 mg/kg, po administered daily for 5 days by MRI method relative to control; type: functional, U-87MG ATCC; conditions: 120 h, read-out: TGI

Chain of RAC-alpha serine/threonine-protein kinase (P31749 whole entry): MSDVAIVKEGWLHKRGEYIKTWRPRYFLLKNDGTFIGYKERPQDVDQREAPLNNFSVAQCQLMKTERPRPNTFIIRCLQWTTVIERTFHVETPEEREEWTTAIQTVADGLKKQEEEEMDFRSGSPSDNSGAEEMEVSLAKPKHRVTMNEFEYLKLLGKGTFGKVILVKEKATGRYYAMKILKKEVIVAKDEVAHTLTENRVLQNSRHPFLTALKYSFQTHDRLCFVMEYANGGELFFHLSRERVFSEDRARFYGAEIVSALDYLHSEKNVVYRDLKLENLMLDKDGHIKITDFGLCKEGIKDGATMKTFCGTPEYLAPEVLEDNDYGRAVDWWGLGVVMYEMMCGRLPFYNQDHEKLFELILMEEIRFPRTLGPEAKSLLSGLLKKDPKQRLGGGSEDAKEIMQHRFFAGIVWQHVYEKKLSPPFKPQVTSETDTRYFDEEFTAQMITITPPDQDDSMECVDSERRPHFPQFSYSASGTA
Chain of Phosphatidylinositol 4,5-bisphosphate 3-kinase catalytic subunit beta isoform (P42338 whole entry, canonical isoform): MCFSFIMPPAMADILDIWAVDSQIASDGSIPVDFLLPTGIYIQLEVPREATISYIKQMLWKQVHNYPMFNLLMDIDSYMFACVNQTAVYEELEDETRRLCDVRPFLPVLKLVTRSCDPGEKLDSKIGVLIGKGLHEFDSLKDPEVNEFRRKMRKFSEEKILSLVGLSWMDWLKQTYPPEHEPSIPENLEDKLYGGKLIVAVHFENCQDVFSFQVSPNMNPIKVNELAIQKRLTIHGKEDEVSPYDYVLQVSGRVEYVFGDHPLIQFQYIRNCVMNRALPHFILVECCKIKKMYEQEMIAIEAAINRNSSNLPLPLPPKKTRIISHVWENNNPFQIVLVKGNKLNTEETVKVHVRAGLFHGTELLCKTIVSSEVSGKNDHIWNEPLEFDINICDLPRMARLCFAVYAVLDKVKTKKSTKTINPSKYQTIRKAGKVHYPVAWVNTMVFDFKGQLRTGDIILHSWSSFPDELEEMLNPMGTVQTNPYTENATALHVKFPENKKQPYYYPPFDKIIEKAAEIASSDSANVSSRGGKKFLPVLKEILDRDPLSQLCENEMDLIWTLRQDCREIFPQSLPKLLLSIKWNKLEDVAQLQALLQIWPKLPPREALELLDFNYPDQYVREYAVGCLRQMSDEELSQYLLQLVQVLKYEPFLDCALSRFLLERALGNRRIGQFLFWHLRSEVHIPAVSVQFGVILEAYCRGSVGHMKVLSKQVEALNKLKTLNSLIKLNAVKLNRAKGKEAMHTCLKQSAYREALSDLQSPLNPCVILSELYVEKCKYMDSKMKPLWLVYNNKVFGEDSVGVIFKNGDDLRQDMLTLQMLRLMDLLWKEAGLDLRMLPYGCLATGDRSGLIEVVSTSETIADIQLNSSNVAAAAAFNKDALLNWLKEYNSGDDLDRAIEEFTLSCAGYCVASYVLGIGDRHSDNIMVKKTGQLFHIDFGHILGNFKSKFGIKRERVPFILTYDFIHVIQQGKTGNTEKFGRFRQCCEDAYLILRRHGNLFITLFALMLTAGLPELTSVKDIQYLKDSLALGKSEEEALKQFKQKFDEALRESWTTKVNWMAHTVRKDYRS
Chain of Phosphatidylinositol 4,5-bisphosphate 3-kinase catalytic subunit gamma isoform (P48736 whole entry, canonical isoform): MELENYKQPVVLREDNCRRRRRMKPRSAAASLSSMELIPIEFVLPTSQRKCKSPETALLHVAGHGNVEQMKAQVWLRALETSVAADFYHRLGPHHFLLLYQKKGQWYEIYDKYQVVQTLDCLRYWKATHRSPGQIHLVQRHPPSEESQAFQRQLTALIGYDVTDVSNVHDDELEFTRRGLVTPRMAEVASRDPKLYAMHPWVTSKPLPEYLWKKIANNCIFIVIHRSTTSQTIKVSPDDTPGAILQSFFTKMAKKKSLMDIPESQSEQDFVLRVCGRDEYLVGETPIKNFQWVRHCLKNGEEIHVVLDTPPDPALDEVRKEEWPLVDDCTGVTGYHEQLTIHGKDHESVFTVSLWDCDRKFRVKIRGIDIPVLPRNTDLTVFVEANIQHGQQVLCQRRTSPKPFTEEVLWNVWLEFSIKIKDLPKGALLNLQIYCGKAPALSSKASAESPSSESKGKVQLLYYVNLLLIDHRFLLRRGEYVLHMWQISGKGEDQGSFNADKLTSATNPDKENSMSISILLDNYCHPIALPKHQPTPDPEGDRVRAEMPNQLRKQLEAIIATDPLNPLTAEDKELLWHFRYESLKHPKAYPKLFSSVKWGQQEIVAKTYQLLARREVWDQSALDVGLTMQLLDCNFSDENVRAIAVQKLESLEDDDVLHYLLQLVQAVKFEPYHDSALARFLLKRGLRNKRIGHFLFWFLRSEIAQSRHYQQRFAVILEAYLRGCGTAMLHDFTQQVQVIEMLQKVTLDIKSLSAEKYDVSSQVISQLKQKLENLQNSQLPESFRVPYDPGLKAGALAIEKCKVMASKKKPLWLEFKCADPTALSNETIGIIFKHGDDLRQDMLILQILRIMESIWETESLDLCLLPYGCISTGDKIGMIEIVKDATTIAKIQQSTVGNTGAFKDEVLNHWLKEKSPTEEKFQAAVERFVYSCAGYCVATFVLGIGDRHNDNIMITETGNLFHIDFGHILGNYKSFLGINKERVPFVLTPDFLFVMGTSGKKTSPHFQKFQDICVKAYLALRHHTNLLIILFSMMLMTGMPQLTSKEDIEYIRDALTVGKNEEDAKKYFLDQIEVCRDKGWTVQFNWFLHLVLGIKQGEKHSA

## CC(=O)O[C@H]1C(=O)[C@@]2(C)[C@H]([C@H](OC(=O)c3ccccc3)[C@]3(O)C[C@H](OC(=O)[C@H](O)[C@@H](NC(=O)c4ccccc4)c4ccccc4)C(C)=C1C3(C)C)[C@]1(OC(C)=O)CO[C@@H]1C[C@@H]2O [PACLITAXEL]
NCI-H460 [1]
  inhibition in vivo at 24 mg/kg: 75.4%
Mus musculus [2]
  Activity: Toxic
Mus musculus [3]
  Activity: Toxic
NCI-H460 [4]
  inhibition in vivo at 24 mg/kg: 85.9%

## COc1ccc(-c2cc3c(C)nc(N)nc3n([C@H]3CC[C@H](OCCO)CC3)c2=O)cn1 [PF-04691502]
NCI-H460 [5]
  pIC50: 6.70
Mus musculus [6]
  Activity: Toxic
NCI-H460 [7]
  inhibition in vivo at 10 mg/kg: 67.4%

## COc1ncc(-c2cc(OC3CCOCC3)c3nc(N)nc(C)c3c2)cc1NS(=O)(=O)c1ccc(F)cc1F
In vitro [8]
  fraction unbound at 6 h, 2 µM: 0.0823
In vivo [9]
  AUC(0-t): 23900 ng·h/mL
Mus musculus [10]
  IC90: 0.00081 µg/mL (≈ 0.00145 µM)
In vivo [11]
  half-life: 666 min
MGC-803 [12]
  inhibition in vivo at […]: 68.2%
In vivo [13]
  half-life: 88.8 min
DU-145
  pIC50: 5.77
NCI-H209 [14]
  inhibition in vivo at 5 mg/kg: 91.7%
U-87 MG [15]
  pIC50: 6.92
[16]
  AUCt: 234 ng·h/g
HGC-27 [17]
  pIC50: 7.60
NCI-H460 [18]
  inhibition in vivo at 5 mg/kg: 72.5%
In vivo [19]
  Cmax: 4290 ng/mL
In vivo [20]
  bioavailability: 33.2%
NCI-H460 [21]
  IC50: 0.016 µg/mL (≈ 0.0287 µM)
MGC-803 [22]
  inhibition in vivo at 10 mg/kg: 77.7%
U-251
  pIC50: 6.49
T98G
  pIC50: 6.38
PC-3
  pIC50: 6.82
[23]
  pIC50: < 5.00
MDA-MB-231
  pIC50: 6.74
In vivo [24]
  MTD at 336 h: > 40 mg/kg
HGC-27 [25]
  inhibition in vivo at […]: 92.2%
In vivo [26]
  Tmax: 30 min
SH-SY5Y
  pIC50: 6.55
In vivo [27]
  AUC(0-inf): 7240 ng·h/mL
NCI-H209 [28]
  TGI: Dose-dependent effect
In vivo [29]
  clearance: 7.58 mL/min/kg
In vitro [30]
  fraction unbound at 6 h, 2 µM: 0.0422
MGC-803 [31]
  TGI: Dose-dependent effect
NCI-H209 [32]
  inhibition in vivo at […]: 80.9%
[33]
  pIC50: 9.28
[34]
  pIC50: 9.74
MGC-803 [35]
  inhibition in vivo at 5 mg/kg: 77.2%
In vivo [36]
  Cmax: 10300 ng/mL
In vivo [37]
  AUC(0-inf): 36200 ng·h/mL
[38]
  pIC50: 8.10
In vivo [39]
  Cmax: 93 ng/g
In vivo [40]
  AUC(0-t) at 24 h: 11800 ng·h/mL
[41]
  pIC50: 8.89
NCI-H460 [7]
  inhibition in vivo at 10 mg/kg: 79.8%
In vivo [42]
  Tmax: 1.8 min
In vivo [43]
  Vd: 0.853 L/kg
In vivo [44]
  AUC(0-t): 7190 ng·h/mL
A549
  pIC50: 7.28

## COc1ccc(CN2CCNCC2)c(OC)c1OC [TRIMETAZIDINE]
U-87 MG [45]
  inhibition in vivo at 30 mg/kg: 98.1%
